According to the supplement of paper PMC10307832:

Key:
Assay in all cases: relative viability (nuclei count vs DMSO), 5 days (fraction); higher = more cells survive
[1] = compound: CCCS(=O)(=O)Nc1ccc(F)c(C(=O)c2c[nH]c3ncc(-c4ccc(Cl)cc4)cc23)c1F [Vemurafenib] + O=C(c1cc(Cc2n[nH]c(=O)c3ccccc23)ccc1F)N1CCN(C(=O)C2CC2)CC1 [Olaparib] (partner 8 µM)
Summary of the method: (§1)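 Each reported value is a median over duplicate plates. It expresses relative viability: treated-well nuclei count divided by vehicle-well nuclei count. Lung cancer cell lines in 1536-well plates were dosed by pin tool a day after seeding, alone with one drug or with a fixed anchor-drug dose plus five library-drug doses (not always all listed) in √10 steps, and nuclei were counted after 5 days.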

[2] = compound: COc1cccc2cc(-c3nc([C@H]4CC[C@H](C(=O)O)CC4)n4ncnc(N)c34)[nH]c12 [OSI-027] + COc1cc2c(Oc3ccc(NC(=O)C4(C(=O)Nc5ccc(F)cc5)CC4)cc3F)ccnc2cc1OCCCN1CCOCC1 [Foretinib] (partner 0.25 µM)
Summary of the method: as §1

[3] = compound: CCCS(=O)(=O)Nc1ccc(F)c(C(=O)c2c[nH]c3ncc(-c4ccc(Cl)cc4)cc23)c1F [Vemurafenib] + N=C(N)NC(=N)NCCc1ccccc1 [Phenformin] (partner 250 µM)
Summary of the method: as §1

[4] = compound: COc1cccc2cc(-c3nc([C@H]4CC[C@H](C(=O)O)CC4)n4ncnc(N)c34)[nH]c12 [OSI-027] + O=C(CCCCCCC(=O)Nc1ccccc1)NO [Vorinostat] (partner 1 µM)
Summary of the method: as §1

NCI-H322M
relative viability ([1]; first compound 0.03162 µM): 0.728 | relative viability ([1]; first compound 0.3162 µM): 0.93 | relative viability ([1]; first compound 1 µM): 0.726 | relative viability ([2]; first compound 0.01 µM): 0.942 | relative viability ([2]; first compound 0.03162 µM): 0.93 | relative viability ([2]; first compound 0.1 µM): 0.764 | relative viability ([2]; first compound 0.3162 µM): 0.654 | relative viability ([2]; first compound 1 µM): 0.517 | relative viability ([3]; first compound 0.03162 µM): 0.714 | relative viability ([3]; first compound 1 µM): 0.724 | relative viability ([4]; first compound 0.01 µM): 0.869 | relative viability ([4]; first compound 0.03162 µM): 0.863 | relative viability ([4]; first compound 0.1 µM): 0.748 | relative viability ([4]; first compound 0.3162 µM): 0.663 | relative viability ([4]; first compound 1 µM): 0.624
